Measured values from patent US20240139149A1, “THERAPEUTIC USES OF UROLITHIN DERIVATIVES” (Vandria SA, priority 2022, published 2024).

Tested on: APTK organoids
Experiment: APTK tumor organoids treated with UA (lysosomes, mitochondria, MHC-I by flow cytometry)
Assay type: cell-based, mouse
Conditions: increasing concentrations of UA
Procedure: APTK colorectal organoids which harbor mutations for Apc, Trp53 and Tgfbr2 as well as expression of oncogenic KraSG12D were established and maintained as previously described (Nicolas et al., 2022; Varga et al., 2020). APTK organoids were seeded in 6 wells suspension plates: 6 droplets of 50 l Matrigel (Corning) per well were used. To generate OVA-APTK, colon organoids were isolated from unchallenged OVA mice (The Jackson Laboratory) as previously described (Nicolas et al., 2022). Liposomes CRISPR/Cas9 technology-based transfection was used for targeted knockout of the following mutated colorectal cancer-related genes: Apc (gRNA: […])(SEQ ID NO:1), Trp53 gRNA: […]) (SEQ ID NO:2), and Tgfbr2 (gRNA: […]) (SEQ ID NO:3) as previously described (Schwank and Clevers, 2016). Cas9 plasmid (Addgene; #41815) was used along gRNA plasmids generated from addgene #41819 plasmid by cloning the gRNA of interest instead of GFP targeting gRNA. Firstly, Apc knockout (A) organoids were functionally selected by the withdrawal of R-spondin from the culture medium. Secondly, Apc Trp53 (AT) knockout organoids were selected for Trp53 loss with 5 μM of MDM2 inhibitor (Nutlin-3) (Biomole, cat no. 10004372). Thirdly, Apc Trp53 Tgfbr2 (APT) knockout organoids were selected with […] recombinant TGFβ (R&D Systems; 7666-MB). Finally, KrasG12D gain of function mutation was obtained by overexpressing the active murine version of Kras gene (cloned in house based on Addgene plasmid #111164, Map-S5) in APT organoids. Apc, Trp53, Tgfbr2 and KrasG12D (APTK) OVA organoids were selected by 2 μg/mL puromycin (Merck; 58-58-2) and withdrawal of EGF and noggin from the culture medium. In order to study the effect of UA on lysosome formation, mitochondria reduction as well as antigen presentation, organoids were treated with 25-50 μM UA for 24-48 h. Organoids were subsequently stained with a MHC-I antibody (AF6-88.5; 116516; BioLegend), Mitotracker Deep Red (250 nm; ThermoFisher) and Lysotracker Red DND-99 (75 nM; ThermoFisher).

Structure (SMILES): O=c1oc2cc(O)ccc2c2ccc(O)cc12 [UA, Urolithin A]
- MitoTracker staining: loss of MitoTracker staining
- formation of lysosomes (lysotracker): dose-dependent formation of lysosomes
- MHC-I expression (48 hours): marked upregulation
